These are literature values, as cited in patent US5482960A, “Nonpeptide endothelin antagonists” (Warner-Lambert Company, priority 1994, dated 1996).

Where a SMILES comes first, the peptide text is derived from it. [ ]: non-standard residue; d: D form.

For series [1], the system named is ETA. The note with it: oral; cited from earlier work.
A further series concerns endothelin. The note with it: rats; cited from earlier work.
A further series relates to ET receptor. The note with it: allergic sheep; cited from earlier work.
Series [2] has as its system ETA. The conditions noted are these: mouse model of endotoxic shock; cited from earlier work.
Series [3] relates to ETA. The conditions noted are these: following subarachnoid hemorrhage; cited from earlier work.
Series [4] deals with porcine pulmonary arteries. The conditions noted are these: isolated, endothelium-intact porcine pulmonary arteries; cited from earlier work.
The next series has as its system liver. The note with it: cited from earlier work.
The next series has as its system small intestinal mucosa. The conditions noted are these: local intra-arterial, rats; cited from earlier work.

With `Cc1noc(NS(=O)(=O)c2cccc3c(N(C)C)cccc23)c1C` [5-(Dimethylamino)-N-(3,4-dimethyl-5-isoxazolyl)-1-naphthalenesulfonamide], the antihypertensive effect result with ETA [1] is “demonstrated an oral antihypertensive effect”.
Take `COc1cccc(Oc2c(NS(=O)(=O)c3ccc(C(C)(C)C)cc3)ncnc2OCCO)c1` [RO 46-2005]: the “efficacy in models of acute renal ischemia and subarachnoid hemorrhage” value with endothelin is “effective in models of acute renal ischemia and subarachnoid hemorrhage in rats”.
As to `CC(C)C[C@@H]1NC(=O)[C@@H](C(C)C)NC(=O)[C@@H]2CCCN2C(=O)[C@@H](CC(=O)O)NC(=O)[C@@H](Cc2c[nH]c3ccccc23)NC1=O` [BQ-123] (cyclo(L[dW][dD]P[dV])), the “block of ET-1 induced bronchoconstriction and tracheal smooth muscle contraction” value in the series on ET receptor is “block ET-1 induced bronchoconstriction and tracheal smooth muscle contraction”. Besides, the survival rate result with ETA [2] is “significantly increased the survival rate”. In addition, in the series with ETA [3], the early cerebral vasospasm result is “prevent early cerebral vasospasm following subarachnoid hemorrhage”.
For “ET[1,3,11,15-A1a]: selective ETB agonist, linear analog (ASASSLMDKEAVYFAHLDIIW; Endothelin-1; UniProt P05305 53-73, looked up, variant C1A C3A C11A C15A)”, the vasorelaxation entry in series [4] is on record as “caused vasorelaxation”.
As to endothelin, the “vasoconstriction of the hepatic vasculature and hepatic glucose output” value with liver was “sustained vasoconstriction of the hepatic vasculature and a significant increase in hepatic glucose output”. In the series on small intestinal mucosa, the “small intestinal mucosal damage” value is listed as “induce small intestinal mucosal damage in rats in a dose-dependent manner”.
